From US6417176B2, “Arylsulfonanilide phosphates” (Tularik, Inc., priority 1998, dated 2002)

System: HeLa cells
Details: 72 hours of treatment, 50% growth inhibition

5-(Pentafluorophenylsulfonamido)-2-methoxyphenyl phosphate [Example 1]
GI50: 15 nM
